Source: article PMC8592510 (CPT: Pharmacometrics & Systems Pharmacology, 2021)

How the values were obtained:
[1] = type: in vivo, human; conditions: covariate analysis, allometric scaling principles
[2] = Logistic regression exposure-safety analyses; conditions: alectinib 300 or 600 mg b.i.d.
[3] = cited from earlier work
[4] = cited from earlier work; remark: listed apart in the source
CYP3A = conditions: cited from earlier work
[5] = Bayesian feedback population PK analyses of phase III data; type: in vivo; conditions: human, plasma, oral
[6] = cited from earlier work; remark: listed apart in the source

| SMILES | Body weight effect on clearance and volume [1] | Effect of Caverage on severity of the first event for SAEs or Grade ≥3 AEs [2] | Relationship between Caverage and first occurrence of Grade ≥3 AEs ([2]; J-ALEX, ALEX, ALESIA) | Relationship between combined alectinib and M4 molar concentration (Caverage) and first occurrence of SAEs ([2]; J-ALEX, ALEX, ALESIA) | Blood-brain barrier penetration [3] | Safety profile compared with crizotinib ([4]; J-ALEX, ALEX and ALESIA) | Enzyme involved in metabolism (CYP3A) | First-pass metabolism by cytochrome P450 (CYP) 3A (CYP3A) | half-life [5] [h] | Lipophilicity [6] | Frequency of Grade ≥3 AEs and SAEs, crizotinib versus alectinib ([4]; ALEX study) |
| --- | --- | --- | --- | --- | --- | --- | --- | --- | --- | --- | --- |
| CCc1cc2c(cc1N1CCC(N3CCOCC3)CC1)C(C)(C)c1[nH]c3cc(C#N)ccc3c1C2=O [alectinib] | significant body weight effect | no apparent effect | no significant relationship | no significant relationship | can penetrate the blood–brain barrier | favorable safety profile compared with crizotinib | CYP3A is the main enzyme | limited | 34 | lipophilic |  |
| C[C@@H](Oc1cc(-c2cnn(C3CCNCC3)c2)cnc1N)c1c(Cl)ccc(F)c1Cl [crizotinib] |  |  |  |  |  |  |  |  |  |  | more frequent |
